Results reported in patent US11369605B2, “Optically active azabicyclo ring derivative” (priority 2018, dated 2022).

Tests used:
Type in all cases: cell-based
[1] = system: MEIS1 mRNA in MV4; 11 cells; test: Test 3: inhibition of mRNA transcription, MEIS1
Protocol: (§1) Test 3: Test for the Inhibition of mRNA Transcription with Test Compounds
(§2) MV4; 11 cells were obtained from American Type Culture Collection (ATCC). […] After the incubation, the total RNA was extracted from the cells with RNeasy™ Mini Kit (QIAGEN, 74106), and cDNA was synthesized with Superscript™ VILO™ cDNA Synthesis Kit (Invitrogen, #11754250). By using TaqMan™ Gene Expression Master Mix (Applied Biosystems, 4369016) and TaqMan™ probe (Applied Biosystems), the expression level of mRNA was quantified from the obtained cDNA with 7900HT (Applied Biosystems). The expression level of each obtained gene (MEIS1 and HOXA9) was fitted with the expression level of mRNA of GAPDH.

RS4; 11 cells = test: Test 2: inhibition of cell proliferation, RS4; 11; conditions: Homo sapiens; RS4; 11 cells, cultured 7 days, PrestoBlue
Protocol: (§3) Test for Evaluating the Inhibition of Cell Proliferation RS4; 11 cells were obtained from American Type Culture Collection (ATCC). […] MOLM-13 cells were separately obtained from DSMZ (Deutsche Sammlung von Mikroorganismen und Zeilkulturen GmbH). […] The cells were plated to a 96-well plate in 2000 cells/well, each test compound was added thereto to adjust the final concentration of DMSO to 0.1% of DMSO, and the cells were cultured for 7 days. After the cultivation, the cell viability was calculated with PrestoBlue™ Cell Viability Reagent (Invitrogen, A13261).

MOLM-13 cells = test: Test 2: inhibition of cell proliferation, MOLM-13; conditions: Homo sapiens, cultured 7 days, PrestoBlue
Protocol: as §3

[2] = system: HOXA9 mRNA in MV4; 11 cells; test: Test 3: inhibition of mRNA transcription, HOXA9; conditions: 20 to 24 hours, fitted with GAPDH
Protocol: as §1, §2

C=C1C[C@@H]2CC[C@H]1[C@@H](C(=O)N1CC3(C1)CN(c1ncncc1Oc1ccc(F)cc1C(=O)N(C(C)C)C(C)C)C3)N2 [Example 7, 5-fluoro-2-[(4-{6-[(1S,3S,4R)-5-methylidene-2-azabicyclo[2.2.2]octane-3-carbonyl]-2,6-diazaspiro[3.3]heptan-2-yl}pyrimidin-5-yl)oxy]-N,N-di(propan-2-yl)benzamide]
mRNA transcription inhibition activity (in words) ([1]; MEIS1 and HOXA9, MV4, summary of Test 3): showed the mRNA transcription inhibition activity | mRNA at 1 μM (% control) MEIS1 ([1]; MV4, 1 μM, 20 to 24 hours, fitted with GAPDH): 12.7 % control | IC50 (RS4; 11 cells): 10 nM | IC50 (MOLM-13 cells): 30 nM | mRNA at 1 μM (% control) HOXA9 [2]: 37.9 % control
